Test results: publication doi:10.1101/2023.04.18.537371v1 (bioRxiv, 2023)
Peptide text beside a SMILES is read from it.

Columns and labels:
[1] = Metabolism of FC-12738 in SD rat plasma; format: in vivo
[2] = biological target: T1, CYP2C8 (Homo sapiens, UniProt P10632); assay: CYP time-dependent inhibition assay; format: in vitro ADME
T1 sequence (P10632 1-490): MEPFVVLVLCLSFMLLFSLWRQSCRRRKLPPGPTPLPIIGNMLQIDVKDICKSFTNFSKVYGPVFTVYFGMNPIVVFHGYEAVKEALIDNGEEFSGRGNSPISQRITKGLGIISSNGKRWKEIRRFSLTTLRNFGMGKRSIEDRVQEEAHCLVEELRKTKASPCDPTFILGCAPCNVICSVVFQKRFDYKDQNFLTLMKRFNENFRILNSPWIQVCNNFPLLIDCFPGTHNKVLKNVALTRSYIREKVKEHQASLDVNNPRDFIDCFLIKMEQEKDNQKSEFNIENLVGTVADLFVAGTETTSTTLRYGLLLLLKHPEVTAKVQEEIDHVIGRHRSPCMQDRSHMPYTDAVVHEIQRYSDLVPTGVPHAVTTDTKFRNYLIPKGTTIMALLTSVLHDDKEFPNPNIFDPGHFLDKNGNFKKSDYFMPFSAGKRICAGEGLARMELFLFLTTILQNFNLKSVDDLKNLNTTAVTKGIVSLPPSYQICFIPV

[3] = Plasma stability; format: in vitro ADME, CD-1 mouse
[4] = Plasma stability; format: in vitro ADME, human
[5] = In vitro protein binding, rapid equilibrium dialysis; format: in vitro ADME; conditions: human, plasma
[6] = system: human hepatocytes; assay: Hepatocyte stability; format: in vitro ADME; conditions: 1.00 μM
[7] = system: dog hepatocytes; assay: Metabolite identification in hepatocytes; format: in vitro ADME; conditions: cryopreserved dog hepatocytes, FC-12738 10 μM, 37 °C, 240 min, LC-UV-MS
[8] = system: human hepatocytes; assay: Metabolite identification in hepatocytes; format: in vitro ADME; conditions: cryopreserved human hepatocytes, FC-12738 10 μM, 37 °C, 240 min, LC-UV-MS
[9] = biological target: T2, CYP2B6 (Homo sapiens, UniProt P20813); assay: biochemical; format: in vitro ADME
T2 sequence (P20813 1-491): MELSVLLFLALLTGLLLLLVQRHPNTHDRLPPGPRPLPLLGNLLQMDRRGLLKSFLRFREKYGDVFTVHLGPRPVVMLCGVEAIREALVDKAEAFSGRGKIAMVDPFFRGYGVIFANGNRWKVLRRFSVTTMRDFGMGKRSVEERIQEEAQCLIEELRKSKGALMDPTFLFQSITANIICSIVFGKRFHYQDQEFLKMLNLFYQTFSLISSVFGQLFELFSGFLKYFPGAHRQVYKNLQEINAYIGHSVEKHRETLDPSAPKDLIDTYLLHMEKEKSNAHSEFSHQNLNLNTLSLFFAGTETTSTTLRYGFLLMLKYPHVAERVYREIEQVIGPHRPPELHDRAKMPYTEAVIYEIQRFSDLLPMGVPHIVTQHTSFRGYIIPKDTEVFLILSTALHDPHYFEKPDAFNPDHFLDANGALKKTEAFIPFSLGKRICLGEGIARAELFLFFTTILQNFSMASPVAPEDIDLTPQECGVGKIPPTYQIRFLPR

[10] = system: beagle dog hepatocytes; assay: Hepatocyte stability; format: in vitro ADME; conditions: 1.00 μM
[11] = biological target: CYP2D6 (Homo sapiens, UniProt P10635); assay: CYP time-dependent inhibition assay; format: in vitro ADME
[12] = In vitro protein binding, rapid equilibrium dialysis; format: in vitro ADME; conditions: CD-1, mouse, plasma
[13] = Metabolite identification in liver microsomes; format: in vitro ADME; conditions: human liver microsomes, 10 μM, 37 °C, 120 min, NADPH
[14] = biological target: OCT2 (Homo sapiens, UniProt O15244); assay: Transporter inhibition in HEK293 cells; format: in vitro ADME
[15] = cutoff IC50 shift >= 1.5-fold, 30 min pre-incubation ± NADPH

CYP2D6, sequence (P10635 whole entry): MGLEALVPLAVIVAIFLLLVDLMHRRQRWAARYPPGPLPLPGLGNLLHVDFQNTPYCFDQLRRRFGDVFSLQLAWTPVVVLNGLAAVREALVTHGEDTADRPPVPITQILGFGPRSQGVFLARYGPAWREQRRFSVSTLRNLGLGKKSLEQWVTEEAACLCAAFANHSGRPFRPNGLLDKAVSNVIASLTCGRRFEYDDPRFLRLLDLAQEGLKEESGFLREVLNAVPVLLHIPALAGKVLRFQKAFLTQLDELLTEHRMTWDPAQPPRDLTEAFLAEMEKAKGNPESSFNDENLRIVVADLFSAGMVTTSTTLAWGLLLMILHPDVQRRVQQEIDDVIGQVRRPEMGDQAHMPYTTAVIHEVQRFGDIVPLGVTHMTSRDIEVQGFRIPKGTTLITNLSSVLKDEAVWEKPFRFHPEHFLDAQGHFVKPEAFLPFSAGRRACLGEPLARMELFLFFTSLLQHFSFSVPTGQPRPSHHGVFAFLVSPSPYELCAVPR
OCT2, sequence (O15244 whole entry): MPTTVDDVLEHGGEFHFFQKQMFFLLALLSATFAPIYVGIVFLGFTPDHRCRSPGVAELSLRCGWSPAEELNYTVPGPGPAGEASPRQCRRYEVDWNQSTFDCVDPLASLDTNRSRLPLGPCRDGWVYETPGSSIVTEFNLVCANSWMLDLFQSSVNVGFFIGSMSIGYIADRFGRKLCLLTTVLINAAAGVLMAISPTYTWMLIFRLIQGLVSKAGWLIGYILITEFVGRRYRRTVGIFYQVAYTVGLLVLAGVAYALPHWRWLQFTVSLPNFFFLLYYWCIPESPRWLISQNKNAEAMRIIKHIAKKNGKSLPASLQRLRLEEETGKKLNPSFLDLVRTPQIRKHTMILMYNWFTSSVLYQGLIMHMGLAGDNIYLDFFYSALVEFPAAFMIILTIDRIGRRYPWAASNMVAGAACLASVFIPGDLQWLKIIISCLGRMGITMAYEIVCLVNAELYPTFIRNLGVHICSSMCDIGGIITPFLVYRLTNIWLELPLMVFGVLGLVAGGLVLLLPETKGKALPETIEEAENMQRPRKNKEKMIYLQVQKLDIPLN

Question: Which “Relative MS abundance (%Total)” value ([1]; male SD rat plasma 0-2 h, IV 2 mg/kg FC-12738 single) does the source give for `CC(C)[C@@H](NC(=O)[C@H](N)Cc1ccc(O)cc1)C(=O)N[C@H](CC(=O)O)C(=O)N[C@H](CCCCN)C(=O)N[C@H](CCCNC(=N)N)C(=O)O` [FC-12738, (D-Tyr)-(D-Val)-(D-Asp)-(D-Lys)-(D-Arg)] (HELM PEPTIDE1{[dY].[dV].[dD].[dK].[dR]}$$$$V2.0) here?
Answer: 97.10%

Question: And the “Relative MS abundance (%Total)” value ([1]; male SD rat plasma 0-4 h, SC 10 mg/kg FC-12738 single)?
Answer: 96.57%

Question: What about the IC50 [2] of the same compound?
Answer: > 100 µM

Question: And the “Time-dependent inhibition of CYP2C8” value [2, 15]?
Answer: no time-dependent inhibition

Question: And the remaining at 10 min, 2 μM ([3]; CD-1, mouse, plasma)?
Answer: 104%

Question: What about the remaining at 0.5 h, 2 μM ([3]; CD-1, mouse, plasma) of the same compound?
Answer: 100%

Question: What about the remaining at 1 h, 2 μM ([3]; CD-1, mouse, plasma) of the same compound?
Answer: 111%

Question: What about the remaining at 2 h, 2 μM ([3]; CD-1, mouse, plasma) of the same compound?
Answer: 100%

Question: What about the half-life ([3]; CD-1 mouse plasma, 2.00 μM, 37.0 °C, up to 120 min) of the same compound?
Answer: > 6.212 h

Question: What about the half-life ([4]; human plasma, 2.00 μM, 37.0 °C, up to 120 min) of the same compound?
Answer: > 6.212 h

Question: What about the remaining at 10 min, 2 μM ([4]; human, plasma) of the same compound?
Answer: 93.3%

Question: And the remaining at 0.5 h, 2 μM ([4]; human, plasma)?
Answer: 93.6%

Question: And the remaining at 1 h, 2 μM ([4]; human, plasma)?
Answer: 90.6%

Question: And the remaining at 2 h, 2 μM ([4]; human, plasma)?
Answer: 85.6%

Question: And the fraction unbound at 6 h, 0.2 µM [5]?
Answer: 0.428

Question: What about the fraction unbound at 6 h, 2 µM [5] of the same compound?
Answer: 0.47

Question: What about the fraction unbound at 6 h, 10 µM [5] of the same compound?
Answer: 0.673

Question: And the “intrinsic clearance CLint(hep)” value ([6]; cryopreserved human hepatocytes, 37.0°C, 120 min)?
Answer: < 1.9 μL/min/10^6 cells

Question: What about the half-life ([6]; cryopreserved human hepatocytes, 37.0°C, 120 min, LC-MS/MS) of the same compound?
Answer: > 6.212 h

Question: And the “hepatic clearance CLint(liver)” value ([6]; scaled from human hepatocytes)?
Answer: < 5.2 mL/min/kg

Question: And the “Relative Abundance (UV%)” value [7]?
Answer: 80.76%

Question: And the “Relative Abundance (UV%)” value [8]?
Answer: 91.82%

Question: What about the IC50 [9] of the same compound?
Answer: > 100 µM

Question: What about the “intrinsic clearance CLint(hep)” value ([10]; cryopreserved beagle dog hepatocytes, 37.0°C, 120 min) of the same compound?
Answer: < 1.9 μL/min/10^6 cells

Question: What about the half-life ([10]; cryopreserved beagle dog hepatocytes, 37.0°C, 120 min, LC-MS/MS) of the same compound?
Answer: > 6.212 h

Question: What about the “hepatic clearance CLint(liver)” value ([10]; scaled from beagle dog hepatocytes) of the same compound?
Answer: < 12.8 mL/min/kg

Question: What about the IC50 [11] of the same compound?
Answer: > 100 µM

Question: What about the “Time-dependent inhibition of CYP2D6” value [11, 15] of the same compound?
Answer: no time-dependent inhibition

Question: What about the fraction unbound at 6 h, 0.2 µM [12] of the same compound?
Answer: 0.449

Question: And the fraction unbound at 6 h, 2 µM [12]?
Answer: 0.455

Question: And the fraction unbound at 6 h, 10 µM [12]?
Answer: 0.479

Question: And the Metabolites detected [13]?
Answer: No metabolites of FC-12738 were detected

Question: And the “Relative Abundance (MS Peak Area %Total)” value ([13]; LC-UV-MS)?
Answer: 100.00%

Question: What about the IC50 [14] of the same compound?
Answer: > 100 µM
